From article PMC8486176 (Cancer Science, 2021)
Ends that are not written are not given here. * marks the point of attachment. RhodamineB = CCN(CC)c1ccc2c(-c3ccccc3C(=O)*)c3ccc(=[N+](CC)CC)cc-3oc2c1

System: NUGC‐4 cells
Assay: Immunofluorescence binding of RhoB‐labeled peptides to fixed NUGC‐4 cells
Type: cell-based, human
Conditions: ImageJ quantification, Figure 4C

Substance: RhoB‐CG7C: CG7C peptide labeled with rhodamine B, negative control (RhodamineB-CGGGGGGGC; cysteine pairing not given here)
- mean fluorescence intensity (MFI): small positive MFI
